Patent US7625875B2 (priority 2002, dated 2009)
Where two headings read alike, the source gives them in different places. Marks after values point to notes of the source that are not given here. Starred links: 1 amine or outer side, 2 acyl side, 3 side chain; linkers in the order of their positions; H or OH if unused. Positions of bridges follow the written chain, without caps; N, C: chain ends. Non-standard residues stand in square brackets, D forms with d. Residues, ends and D or L forms follow the SMILES beside them. Chains are numbered I, II in the order given. Actinocin(9to1) = Cc1c2oc3c(C)ccc(C(=O)[*:1])c3nc-2c(C(=O)[*:2])c(N)c1=O; NMeV = CN[C@H](C(=O)O)C(C)C; Sar = CNCC(=O)O

What was measured:
HepG2 cells [1] = settings: 10 μM; cell type not stated; cited from earlier work
HepG2 cells [2] = experiment: Incorporation of drug into cellular RNA and DNA
HCV = settings: ribavirin alone; cited from earlier work
[3] = test system: HepG2 human hepatoma cell line; experiment: Cytotoxicity (cell proliferation) assay, HepG2; settings: rapid cell division; listed as RBV
BVDV [4] = assay type: cell-based, bovine viral diarrhea virus
[5] = test system: BVDV (strain I-N-dIns), noncytopathic; assay type: cell-based, bovine viral diarrhea virus; settings: titrated from 0 to 2,000 IU per ml
[6] = test system: BVDV New York-1 (NY-1) strain; experiment: MDBK cells persistently infected with BVDV strain New York-1, virus titer; assay type: cell-based, bovine viral diarrhea virus; settings: 200 IU/ml alone
S405T mutant BVDV = assay type: cell-based, bovine viral diarrhea virus; settings: more sensitive
human DNA polymerase α = human DNA polymerase α (Homo sapiens, UniProt P09884); experiment: Inhibition of human DNA polymerase α; assay type: biochemical
human DNA polymerase β = human DNA polymerase β (Homo sapiens, UniProt P06746); experiment: Inhibition of human DNA polymerase β; assay type: biochemical
human DNA polymerase γ = target: T1, human DNA polymerase γ (Homo sapiens, UniProt P54098); experiment: biochemical
T1 sequence (P54098 1-1239): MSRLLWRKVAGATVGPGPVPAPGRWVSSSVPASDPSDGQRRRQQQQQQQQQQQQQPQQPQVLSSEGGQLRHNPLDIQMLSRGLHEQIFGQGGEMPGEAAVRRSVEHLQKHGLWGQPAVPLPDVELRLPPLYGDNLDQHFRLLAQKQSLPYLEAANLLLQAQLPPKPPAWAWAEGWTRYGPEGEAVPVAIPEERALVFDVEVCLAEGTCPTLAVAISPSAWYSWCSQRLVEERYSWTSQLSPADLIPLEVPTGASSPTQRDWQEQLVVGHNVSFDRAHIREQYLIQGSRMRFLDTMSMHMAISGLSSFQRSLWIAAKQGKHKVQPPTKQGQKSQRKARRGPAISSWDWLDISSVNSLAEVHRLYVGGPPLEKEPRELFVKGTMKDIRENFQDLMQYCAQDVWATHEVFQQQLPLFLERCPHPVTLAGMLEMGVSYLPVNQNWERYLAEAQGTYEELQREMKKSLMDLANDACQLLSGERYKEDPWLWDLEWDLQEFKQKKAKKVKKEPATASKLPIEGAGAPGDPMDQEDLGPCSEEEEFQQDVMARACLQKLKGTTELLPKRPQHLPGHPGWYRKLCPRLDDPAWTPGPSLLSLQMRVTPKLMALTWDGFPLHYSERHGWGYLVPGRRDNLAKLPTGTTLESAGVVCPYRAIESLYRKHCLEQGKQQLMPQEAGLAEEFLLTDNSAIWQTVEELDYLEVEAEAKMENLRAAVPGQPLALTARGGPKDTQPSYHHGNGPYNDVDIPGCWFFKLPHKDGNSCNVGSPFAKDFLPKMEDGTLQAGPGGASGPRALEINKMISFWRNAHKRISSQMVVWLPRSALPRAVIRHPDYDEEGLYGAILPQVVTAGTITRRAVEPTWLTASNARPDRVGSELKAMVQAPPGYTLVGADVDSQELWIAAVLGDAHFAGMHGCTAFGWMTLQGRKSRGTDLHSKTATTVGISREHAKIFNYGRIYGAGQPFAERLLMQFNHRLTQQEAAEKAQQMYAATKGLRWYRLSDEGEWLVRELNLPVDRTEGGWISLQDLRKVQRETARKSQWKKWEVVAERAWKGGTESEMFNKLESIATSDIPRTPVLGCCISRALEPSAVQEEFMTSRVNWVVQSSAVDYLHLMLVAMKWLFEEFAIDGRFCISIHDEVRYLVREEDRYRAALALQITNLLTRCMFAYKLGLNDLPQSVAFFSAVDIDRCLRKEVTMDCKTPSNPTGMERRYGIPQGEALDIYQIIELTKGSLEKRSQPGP

REO-1 = experiment: microbe, parasite or virus in culture; assay type: cell-based, double-stranded RNA Reovirus; settings: read-out: REO
Sb-1 = experiment: organism not typed; assay type: cell-based, Sabin type 1 poliomyelitis virus; settings: read-out: Sb-1
[7] = Exposure of chimpanzees to mCyd, serum HPLC; settings: after val-mCyd; lower limit of quantification 0.4 μM (100 ng/mL)
CVB-2 = experiment: organism not typed; assay type: cell-based, Coxsackie B-2 virus; settings: read-out: CVB-2
BVDV [8] = assay type: cell-based, bovine viral diarrhea virus; remark: listed apart in the source
[9] = test system: wide spectrum of other viruses; experiment: Exploratory cell culture studies of mUrd, other viruses; assay type: cell-based
DENV 2 = experiment: microbe, parasite or virus in culture; assay type: cell-based, dengue virus; settings: read-out: DENV 2
YFV = assay type: cell-based, yellow fever virus; settings: Tables 30b, 30k-30o
[10] = test system: variety of cytotoxicity tests; experiment: Exploratory cytotoxicity tests of mUrd (bone marrow, mitochondrial function, incorporation into nucleic acid); assay type: cell-based; settings: high concentrations
[11] = test system: MT-4 human T-lymphocyte cells
WNV = experiment: microbe, parasite or virus in culture; assay type: cell-based, West Nile virus; settings: read-out: WNV
BVDV [12] = experiment: Exploratory cell culture studies of mUrd, antiviral efficacy against BVDV; assay type: cell-based, bovine viral diarrhea virus; settings: less potent than mCyd

human DNA polymerase α, sequence (P09884 whole entry): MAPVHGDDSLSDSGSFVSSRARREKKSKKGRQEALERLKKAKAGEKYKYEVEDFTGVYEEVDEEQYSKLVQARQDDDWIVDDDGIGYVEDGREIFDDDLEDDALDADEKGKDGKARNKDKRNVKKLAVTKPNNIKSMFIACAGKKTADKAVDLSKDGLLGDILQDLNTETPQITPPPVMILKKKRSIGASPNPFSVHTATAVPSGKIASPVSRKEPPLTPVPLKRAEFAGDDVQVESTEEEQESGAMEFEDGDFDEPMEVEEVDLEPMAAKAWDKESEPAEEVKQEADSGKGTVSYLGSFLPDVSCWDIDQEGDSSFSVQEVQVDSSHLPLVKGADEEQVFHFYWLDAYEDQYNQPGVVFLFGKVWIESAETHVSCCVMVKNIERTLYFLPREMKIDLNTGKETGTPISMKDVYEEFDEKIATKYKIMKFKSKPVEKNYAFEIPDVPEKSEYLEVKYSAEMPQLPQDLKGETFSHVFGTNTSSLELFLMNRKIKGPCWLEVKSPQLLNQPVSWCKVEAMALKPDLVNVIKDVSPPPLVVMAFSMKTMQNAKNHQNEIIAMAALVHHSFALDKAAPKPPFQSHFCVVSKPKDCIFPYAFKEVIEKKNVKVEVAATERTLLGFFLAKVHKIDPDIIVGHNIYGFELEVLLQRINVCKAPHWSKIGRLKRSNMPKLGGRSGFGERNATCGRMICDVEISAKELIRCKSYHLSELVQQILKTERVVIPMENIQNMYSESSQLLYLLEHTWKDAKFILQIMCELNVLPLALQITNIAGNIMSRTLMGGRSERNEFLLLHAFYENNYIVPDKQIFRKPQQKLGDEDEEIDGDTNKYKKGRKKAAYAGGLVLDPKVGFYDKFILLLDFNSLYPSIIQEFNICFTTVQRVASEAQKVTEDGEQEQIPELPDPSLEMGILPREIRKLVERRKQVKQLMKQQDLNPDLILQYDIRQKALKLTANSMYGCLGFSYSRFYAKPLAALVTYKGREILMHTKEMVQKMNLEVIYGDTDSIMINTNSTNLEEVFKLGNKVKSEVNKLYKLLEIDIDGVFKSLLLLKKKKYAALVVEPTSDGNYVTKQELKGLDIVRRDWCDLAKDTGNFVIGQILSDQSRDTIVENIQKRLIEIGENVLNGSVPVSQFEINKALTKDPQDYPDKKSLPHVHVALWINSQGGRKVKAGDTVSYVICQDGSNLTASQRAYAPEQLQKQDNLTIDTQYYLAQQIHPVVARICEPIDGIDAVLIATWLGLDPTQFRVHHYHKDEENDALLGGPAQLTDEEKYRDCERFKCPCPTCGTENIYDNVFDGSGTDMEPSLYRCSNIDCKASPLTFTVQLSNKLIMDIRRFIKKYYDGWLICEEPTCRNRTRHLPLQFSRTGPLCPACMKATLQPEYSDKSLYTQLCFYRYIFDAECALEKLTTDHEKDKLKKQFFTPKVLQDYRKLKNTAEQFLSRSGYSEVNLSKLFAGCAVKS

O=c1[nH]c(=O)n([C@@H]2O[C@H](CO)[C@@H](O)[C@@H]2F)cc1I [FIAU, 1,-2′-deoxy-2′-fluoro-1-β-D-arabinofuranosyl-5-iodo-uracil]
increase in lactic acid production over control cells (HepG2 cells [1]): 100%

NC(=O)c1ncn([C@@H]2O[C@H](CO)[C@@H](O)[C@H]2O)n1 [ribavirin, 1-β-D-ribofuranosyl-1-1,2,4-triazole-3-carboxamide]
Incorporated drug amount, DNA (HepG2 cells [2]; 10 μM [3H] drug, 30 hours): 0.0120^b pmole/μg DNA | Incorporated drug amount, RNA (HepG2 cells [2]; 10 μM [3H] drug, 30 hours): 0.0132^c pmole/μg RNA | incorporation into both DNA and RNA, level relative to mCyd (HepG2 cells [2]; higher than mCyd): 10 fold | effect on serum levels of HCV-RNA (HCV): does not lower serum levels of HCV-RNA | patients with serum amino transferase levels reduced to normal (HCV): 40% | CC50 [3]: 36 µM

interferon alpha 2b
EC50 (BVDV [4]): 2.6 IU per ml | viral reduction (BVDV [4]; even at 1000 IU per ml): ≤ 2 logs | reduction in viral titer [5]: 0.1 log | reduction in virus titer [6]: approximately 0.1 log10 | sensitivity of the mutant relative to wild-type (S405T mutant BVDV): ~40 fold

Nc1ccn([C@H]2CC[C@@H](COP(=O)(O)OP(=O)(O)OP(=O)(O)O)O2)c(=O)n1 [ddC-TP]
IC50 (human DNA polymerase α): 78 ± 23.4 µM | IC50 (human DNA polymerase β): 4.8 ± 1 µM | IC50 (human DNA polymerase γ): 2.7 ± 1 µM

C[C@@]1(O)[C@H](O)[C@@H](CO)O[C@H]1n1ccc(=O)[nH]c1=O [Compound N, β-D-2′-C-methyl-uracil]
EC50 (REO-1): > 100 µM | EC50 (Sb-1): 55 µM | mUrd in sera samples [7]: No mUrd was detected | EC50 (CVB-2): > 100 µM | EC50 (BVDV [8]): 18 µM | antiviral activity against a wide spectrum of other viruses [9]: essentially no antiviral activity | EC50 (DENV 2): ≥ 100 µM | EC50 (YFV): 100 µM | result in cytotoxicity tests [10]: negative | CC50 [11]: > 100 µM | EC50 (WNV): 80 µM | potency against BVDV relative to mCyd (BVDV [12]): about 10 fold

Cc1c2oc3c(C)ccc(C(=O)N[C@@H]4C(=O)N[C@H](C(C)C)C(=O)N5CCC[C@H]5C(=O)N(C)CC(=O)N(C)[C@@H](C(C)C)C(=O)O[C@@H]4C)c3nc-2c(C(=O)N[C@@H]2C(=O)N[C@H](C(C)C)C(=O)N3CCC[C@H]3C(=O)N(C)CC(=O)N(C)[C@@H](C(C)C)C(=O)O[C@@H]2C)c(N)c1=O [Act. D, actinomycin D] (I: T[dV]P[Sar][NMeV] / II: T[dV]P[Sar][NMeV]; ester I:1-I:C, II:1-II:C; linker I:N-II:N via Actinocin(9to1))
IC50 (human DNA polymerase α): 5.8 ± 3.1 µM | IC50 (human DNA polymerase β): 7.9 ± 3 µM | IC50 (human DNA polymerase γ): 15.5 ± 4 µM
